In publication PMC10578023 (Cell Communication and Signaling : CCS, 2023):

Key:
[1] = system: JAK1/JAK3; test: IL-2-stimulated pSTAT5 in human PBMC; type: cell-based; details: @10μM
Protocol: With regard to IL-2-stimulated JAK1/3 activation in human PBMCs, after 1 h of incubation with QL-1200186, human PBMCs were stimulated with human IL-2 (20 ng/mL; C013; Novoprotein) for 20 min.
(§1) The stimulations stated above were terminated with prewarmed Lyse/Fix Buffer (558,049; BD Biosciences, San Jose, CA, USA) for 10 min. Cells were stained with an anti-cluster of differentiation (CD)3 fluorescein isothiocyanate (FITC) antibody (required for PBMCs but not for the other cell types), washed, and permeabilized on ice using Perm III Buffer (558,050; BD Biosciences) prior to staining with an Alexa Fluor 647 anti-phosphorylated (p)STAT5 (pY694) antibody for 30 min and analyzed by flow cytometry. Phosphorylation of STAT5 was quantified by the median fluorescence intensity (MFI) after gating on the CD3-positive population.

[2] = Met ID in vitro; type: in vitro ADME, human
[3] = rats, data not shown
[4] = logD7.4; type: physicochemical; details: pH 7.4
[5] = biological target: CYP450 1A2 (Homo sapiens, UniProt P05177); type: in vitro ADME
CYP450 1A2, sequence (P05177 whole entry): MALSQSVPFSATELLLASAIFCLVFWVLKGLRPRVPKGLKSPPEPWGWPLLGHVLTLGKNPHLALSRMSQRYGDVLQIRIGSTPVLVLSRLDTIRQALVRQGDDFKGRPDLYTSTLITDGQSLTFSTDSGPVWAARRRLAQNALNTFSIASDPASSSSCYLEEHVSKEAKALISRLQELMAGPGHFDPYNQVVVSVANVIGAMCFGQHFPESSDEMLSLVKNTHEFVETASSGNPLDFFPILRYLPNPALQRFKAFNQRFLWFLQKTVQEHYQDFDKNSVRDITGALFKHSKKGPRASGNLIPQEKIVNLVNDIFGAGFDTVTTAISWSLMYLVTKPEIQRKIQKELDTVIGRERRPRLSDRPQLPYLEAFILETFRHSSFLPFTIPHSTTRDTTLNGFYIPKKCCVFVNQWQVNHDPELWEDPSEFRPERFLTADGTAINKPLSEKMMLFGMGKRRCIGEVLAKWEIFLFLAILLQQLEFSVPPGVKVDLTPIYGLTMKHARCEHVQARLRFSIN
Protocol: (§2) The ADME properties of QL-1200186 in vitro were measured by the following assays: Caco-2 permeability assay, CYP inhibition assay, protein binding assay, and liver microsome assay. Each assay was performed as previously described.

[6] = biological target: JAK1 JH2 domain (Homo sapiens, UniProt P23458); test: JAK1 JH2 binding assay
JAK1 JH2 domain, sequence (P23458 583-855 limits assumed): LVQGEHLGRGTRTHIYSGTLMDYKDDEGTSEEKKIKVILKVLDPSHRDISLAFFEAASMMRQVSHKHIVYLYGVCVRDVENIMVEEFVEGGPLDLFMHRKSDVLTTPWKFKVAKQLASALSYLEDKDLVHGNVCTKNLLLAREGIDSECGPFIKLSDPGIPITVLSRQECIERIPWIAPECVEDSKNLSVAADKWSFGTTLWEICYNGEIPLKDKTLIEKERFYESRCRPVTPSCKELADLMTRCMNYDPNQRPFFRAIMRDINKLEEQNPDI

[7] = biological target: T1, human TYK2 pseudokinase domain (JH2) (Homo sapiens, UniProt P29597); test: TYK2 pseudokinase domain (JH2) binding assay, HTRF tracer competition
T1 construct: was added to the recombinant TYK2 pseudokinase domain
T1 sequence (P29597 589-875 limits assumed): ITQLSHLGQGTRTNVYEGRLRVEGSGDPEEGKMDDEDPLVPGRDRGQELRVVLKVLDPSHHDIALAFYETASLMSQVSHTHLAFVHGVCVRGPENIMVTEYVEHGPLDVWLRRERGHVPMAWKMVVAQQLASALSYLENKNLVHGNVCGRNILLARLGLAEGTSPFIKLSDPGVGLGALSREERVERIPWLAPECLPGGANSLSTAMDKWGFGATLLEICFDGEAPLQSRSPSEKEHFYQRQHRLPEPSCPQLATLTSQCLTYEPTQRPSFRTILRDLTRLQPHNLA
Protocol: An assay that measures the ability of a compound to bind to the TYK2 pseudokinase domain through competition with a tracer was employed. First, human polyhistidine-tag (his-tagged) TYK2 pseudokinase was added to different concentrations of QL-1200186. […] After 1 h at RT, the homogeneous time-resolved fluorescence (HTRF) signal was measured on a plate reader (Envision™; PerkinElmer, Waltham, MA, USA).

[8] = system: panel of 207 kinase proteins; test: Kinase selectivity panel, ADP-Glo kinase assay; type: biochemical, human; details: 1 μM
Protocol: The selectivity of QL-1200186 was measured using a panel of 207 kinase proteins. QL-1200186 (final concentration = 1 μM) was placed in a 384-well plate. Different kinase solutions were configured in kinase buffer, HEPES (50 mM), MgCl2 (10 mM), 0.01% Brij, dithiothreitol (2 mM), and then transferred to 384-well plates. After incubation for 10 min at RT, the substrate and adenosine triphosphate were added, and the reaction was allowed to continue for 60 min. Kinase selectivity was determined by the ADP-Glo™ Kinase Assay (V9103; Promega, Fitchburg, WI, USA). Finally, a microplate reader (BMG Labtech, Ortenberg, Germany) was used to measure the luminescence signal. After data analysis, heatmaps and kinase selection trees were drawn using Prism 8.0.2 (GraphPad, La Jolla, CA, USA) and KinMap (www.kinmap.org/), respectively.

[9] = system: TYK2/JAK2; test: IL-12/IL-18-induced IFNγ production in NK-92 cells, ELISA; type: cell-based, human
Protocol: The inhibitory effect of QL-1200186 on IL-12/IL-18-induced IFNγ production in NK cells or human whole blood was determined by enzyme-linked immunosorbent assay (ELISA). NK92 cells were stimulated with recombinant human IL-12 (2 ng/mL; 200–12; PeproTech, Cranbury, NJ, USA) and recombinant human IL-18 (5 ng/mL; 9124-IL-050/CF; R&D Systems, Minneapolis, MN, USA) with or without QL-1200186 for 24 h at 37 °C. For human whole blood cells, whole blood (200 μL) was preincubated with the compound for 1 h and then stimulated with recombinant human IL-12 (2 ng/mL) or recombinant human IL-18 (10 ng/mL) for 24 h. After centrifugation, the supernatant was collected, and IFNγ production in the supernatant was measured with human IFNγ ELISA kits according to the manufacturer’s instructions (Biolegend, 430,104).

[10] = system: TYK2/JAK1; test: IFNα-stimulated pSTAT5 in human PBMC (CD3+), FACS; type: cell-based
Protocol: With regard to IFNα-stimulated phosphorylation of STAT5 in human peripheral blood mononuclear cells (PBMCs), after incubation with QL-1200186 for 1 h, human PBMCs were stimulated with recombinant human IFNα (1000 U/mL; 11200–2; PBL Assay Science) for 30 min.
as §1

[11] = system: forty-four safety targets; test: In vitro off-target panel of 44 safety targets; details: 10 µM
Protocol: The pharmacologic safety of QL-1200186 was tested by analyzing forty-four safety targets in vitro. The off-target effects of QL-1200186 on 24 G protein-coupled receptors (β1, β2, D1, H2, A2A, CB1, CB2,5-HT1A, 5-HT1B and D2S) were evaluated by measuring the changes in cyclic adenosine monophosphate and IP-1 levels. The effects of QL-1200186 on the current changes of eight ion-channel targets were determined by methods based on fluorescent imaging plate reading and patch clamps. Using stable transfer or transient plasmid transfer, the excitatory and inhibitory effects of QL-1200186 on glucocorticoid receptors and androgen receptors in the nucleus were determined by the change in luciferase expression. The inhibitory effects of QL-1200186 on seven enzymes (including cyclo-oxygenase-2, phosphodiesterase (PDE) 3A and PDE4D2) were evaluated by biochemical methods based on luminescence and fluorescence. After data analyses, radar charts were used to display the results.

[12] = Caco-2 permeability assay; type: in vitro ADME
Protocol: as §2

With CNC(=O)c1cnc2cc1Nc1cc(cc(-c3ccn(C)n3)c1OC)CCOCc1cccc(n1)N2 [QL-1200186, 5^6-methoxy-N-methyl-5^5-(1-methyl-1H-pyrazol-3-yl)-8-oxa-2,4-diaza-1(2,6),3(2,4)-dipyridina-5(1,3)-benzenacyclononaphane-3^5-carboxamide] the “IL-2- pSTAT5 in PBMC (JAK1/JAK3) inhibition” value [1] was ~18% inhibition @10μM, the “specific human metabolites in vitro (Met ID)” value [2] was “no specific human metabolites in vitro” and the “safety in toxicological studies” value [3] was “excellent safety”. For the same compound, the logD7.4 [4] was 3.6, the IC50 [5] was > 50000 nM and the IC50 [6] was 9.85 nM. For the same compound, the “Selectivity fold (TYK2/JAK1)” value ([7]; TYK2 JH2 over JAK1 JH2 binding) was 164 fold, the IC50 ([7]; recombinant TYK2 JH2 domain) was 0.06 nM and the “inhibition rates for all 207 kinases tested” value [8] was “below 50%”. The IC50 [9] was 32.5 nM, the IC50 [10] was 7.26 nM and the “in vitro off-target safety, 44 safety targets” value [11] was “suitable safety”. For the same compound, the “Caco-2 ER (efflux ratio)” value [12] was 1.4.
